In US5932742A, “Arylsulfonylimidazolone derivatives as an antitumor agent” (priority 1996, dated 1999):
Values after ≈ are worked out from the molar mass of the structure shown. Where two headings read alike, the source gives them in different places.

Key:
Type in all cases: cell-based
[1] = test system: A549 (ATCC CCL 185): human lung carcinoma; assay: In vitro antitumor activity, MTT assay, A549; details: Homo sapiens, A549, 48 h
Method: (§1) In vitro antitumor activity against human tumor cell lines
(§2) In vitro antitumor activity of the compounds according to the present invention was determined by MTT assay method against the following human tumor cell lines:
A549 (ATCC CCL 185): human lung carcinoma
(§3) In this test, the known antineoplastic compounds, Doxorubicin and Sulofenur, were used as the comparative agents.
(§4) Each of the tumor cells was cultured in RPMI 1640 media containing 10% fetal bovine serum, 100 IU/ml penicillin and 100 μg/ml streptomycin, and then periodically subcultured once or twice per week in trypsin-EDTA solution containing 0.05% trypsin and 0.53mM EDTA.4Na. The human tumor cell line thus obtained (10,000cells/100 μl) was plated on 96-well microplate and then cultured for 24 hrs at 37° C. in a 5% CO2 incubator. Test compound was dissolved in DMSO, sterilized with 0.22 μm PVDF filter, and then serially 5-fold diluted from 40 μg/ml to 0.00256μg/ml. 100 μl of the sample solution thus prepared and RPMI 1640 medium only (control group) were added to 96-well microplate containing the human tumor cell, respectively. The final concentration of the test compound was in the range from 20 μg/ml to 0.00128 μg/ml and the concentration of DMSO was below 0.5%. The cells were cultured for 48 hrs at 37° C. in a 5% CO2 incubator. MTT(3-(4,5-Dimethylthiazole-2-yl)-e,5-diphenyltetrazoliumbromide) was dissolved in physiological saline in a concentration of 2 mg/ml and the resulting solution was filtered through 0.22 μm PTFE filter. 25 μl of MTT solution thus prepared was added to each well of 96-well microplate and incubated for additional 4 hrs at 37° C. in a 5% CO2 incubator. Then, the content of microplate was centrifuged at 1000 rpm for 10 min, and supernatant was removed by flicking. The formazan formed from MTT by mitochondrial succinate dehydrogenase was dissolved in 100 μl of DMSO. The absorbance of each well was measured at 540nm by micro ELISA reader and the cytotoxicity was calculated by dividing the absorbance of test group by the absorbance of control group. After the calculated cytotoxicity (%) was plotted, the concentration of 50% tumor growth inhibition concentration (IC50) was estimated by Linear-Regression method.

[2] = test system: Colo205 (ATCC CCL 222): human colon adenocarcinoma; assay: In vitro antitumor activity, MTT assay, Colo205; details: Homo sapiens
Method: as §1, §2
Colo205 (ATCC CCL 222): human colon adenocarcinoma
as §3, §4

[3] = test system: SK-OV-3 (ATCC HTB 77): human ovarian adenocarcinoma; assay: In vitro antitumor activity, MTT assay, SK-OV-3; details: Homo sapiens
Method: as §1, §2
SK-OV-3 (ATCC HTB 77): human ovarian adenocarcinoma
as §3, §4

[4] = test system: K562 (ATCC CCL 243): human chronic myelogenous leukemia; assay: In vitro antitumor activity, MTT assay, K562; details: Homo sapiens, K562, 48 h
Method: as §1, §2
K562 (ATCC CCL 243): human chronic myelogenous leukemia
as §3, §4

[5] = COLO 205, Table 1, 48 hrs, read-out: IC50 (Colo205)
[6] = COLO 205, Table 3, 48 hrs, read-out: IC50 (Col205)

| SMILES | IC50 ([1]; Table 4) [µg/mL] | IC50 ([4]; Table 4, read-out: IC50 (K562)) [µg/mL] | IC50 ([3]; SK-OV-3, Table 4, 48 hrs) [µg/mL] | further results |
| --- | --- | --- | --- | --- |
| CCCNC(=O)N1CCc2cc(S(=O)(=O)n3cc(-c4ccccc4)[nH]c3=O)ccc21 [Example 4, 4-phenyl-1-(N-propylcarbamoylindoline-5-sulfonyl)-2-imidazolone] | – | – | – | IC50 ([1]; Table 1): 0.052 µg/mL (≈ 0.122 µM); IC50 [2, 5]: < 0.00128 µg/mL; IC50 ([3]; SK-OV-3, Table 1, 48 hrs): < 0.00128 µg/mL |
| CC(C)NC(=O)N1CCc2cc(S(=O)(=O)n3cc(-c4ccccc4)[nH]c3=O)ccc21 [Example 6, 4-phenyl-1-(N-isopropylcarbamoylindoline-5-sulfonyl)-2-imidazolone] | – | – | – | IC50 ([1]; Table 1): < 0.00128 µg/mL; IC50 [2, 5]: < 0.00128 µg/mL; IC50 ([3]; SK-OV-3, Table 1, 48 hrs): < 0.00128 µg/mL |
| CCCNC(=O)N1CCc2cc(S(=O)(=O)N3CC(c4ccccc4)NC3=O)ccc21 (stereo not shown) [Example 30, 4-phenyl-1-(N-propylcarbamoylindoline-5-sulfonyl)-4,5-dihydro-2-imidazolone] | – | – | – | IC50 ([1]; Table 3): 0.103 µg/mL (≈ 0.24 µM); IC50 [2, 6]: 0.254 µg/mL (≈ 0.593 µM); IC50 ([4]; Table 3, read-out: IC50 (K562)): 0.488 µg/mL (≈ 1.14 µM); IC50 ([3]; SK-OV-3, Table 3, 48 hrs): 0.261 µg/mL (≈ 0.609 µM) |
| CC(C)NC(=O)N1CCc2cc(S(=O)(=O)N3CC(c4ccccc4)NC3=O)ccc21 (stereo not shown) [Example 31, 4-phenyl-1-(N-isopropylcarbamoylindoline-5-sulfonyl)-4,5-dihydro-2-imidazolone] | – | – | – | IC50 ([1]; Table 3): 0.073 µg/mL (≈ 0.17 µM); IC50 [2, 6]: 0.258 µg/mL (≈ 0.602 µM); IC50 ([4]; Table 3, read-out: IC50 (K562)): 0.439 µg/mL (≈ 1.02 µM); IC50 ([3]; SK-OV-3, Table 3, 48 hrs): 0.28 µg/mL (≈ 0.653 µM) |
| C=CCNC(=O)N1CCc2cc(S(=O)(=O)N3CC(c4ccccc4)NC3=O)ccc21 (stereo not shown) [Example 32, 4-phenyl-1-(N-allylcarbamoylindoline-5-sulfonyl)-4,5-dihydro-2-imidazolone] | – | – | – | IC50 ([1]; Table 3): 0.042 µg/mL (≈ 0.0985 µM); IC50 [2, 6]: 7.1 µg/mL (≈ 16.6 µM); IC50 ([3]; SK-OV-3, Table 3, 48 hrs): 0.685 µg/mL (≈ 1.61 µM) |
| O=C(NC1CCCCC1)N1CCc2cc(S(=O)(=O)N3CC(c4ccccc4)NC3=O)ccc21 (stereo not shown) [Example 33, 4-phenyl-1-(N-cyclohexylcarbamoylindoline-5-sulfonyl)-4,5-dihydro-2-imidazolone] | – | – | – | IC50 ([1]; Table 3): 0.003 µg/mL (≈ 0.0064 µM); IC50 [2, 6]: 0.172 µg/mL (≈ 0.367 µM); IC50 ([4]; Table 3, read-out: IC50 (K562)): 0.0037 µg/mL (≈ 0.0079 µM); IC50 ([3]; SK-OV-3, Table 3, 48 hrs): 0.043 µg/mL (≈ 0.0918 µM) |
| Nc1ccc(NC(=O)N2CCc3cc(S(=O)(=O)N4CC(c5ccccc5)NC4=O)ccc32)cc1 (stereo not shown) [Example 35, 4-phenyl-1-[N-(4-aminophenyl)carbamoylindoline-5-sulfonyl)-4,5-dihydro-2-imidazolone] | – | – | – | IC50 ([1]; Table 3): 0.286 µg/mL (≈ 0.599 µM); IC50 [2, 6]: 3.24 µg/mL (≈ 6.78 µM); IC50 ([4]; Table 3, read-out: IC50 (K562)): 0.004 µg/mL (≈ 0.00838 µM); IC50 ([3]; SK-OV-3, Table 3, 48 hrs): 0.763 µg/mL (≈ 1.6 µM) |
| CCCNC(=S)N1CCc2cc(S(=O)(=O)N3CC(c4ccccc4)NC3=O)ccc21 (stereo not shown) [Example 40, 4-phenyl-1-(N-propylthiocarbamoylindoline-5-sulfonyl)-4,5-dihydro-2-imidazolone] | – | – | – | IC50 ([1]; Table 3): 0.245 µg/mL (≈ 0.551 µM); IC50 ([4]; Table 3, read-out: IC50 (K562)): 0.337 µg/mL (≈ 0.758 µM); IC50 ([3]; SK-OV-3, Table 3, 48 hrs): 3.66 µg/mL (≈ 8.24 µM) |
| COc1ccc(NC(=S)N2CCc3cc(S(=O)(=O)N4CC(c5ccccc5)NC4=O)ccc32)cc1 (stereo not shown) [Example 43, 4-phenyl-1-[N-(4-methoxyphenyl)thiocarbamoylindoline-5-sulfonyl]-4,5-dihydro-2-imidazolone] | – | – | – | IC50 ([1]; Table 3): 1.27 µg/mL (≈ 2.49 µM); IC50 ([4]; Table 3, read-out: IC50 (K562)): 1.28 µg/mL (≈ 2.52 µM); IC50 ([3]; SK-OV-3, Table 3, 48 hrs): 1.03 µg/mL (≈ 2.03 µM) |
| O=C(c1ccccc1)N1CCc2cc(S(=O)(=O)N3CC(c4ccccc4)NC3=O)ccc21 (stereo not shown) [Example 47, 4-phenyl-1-(N-benzoylindoline-5-sulfonyl)-4,5-dihydro-2-imidazolone] | 0.196 (≈ 0.438 µM) | 1.84 (≈ 4.12 µM) | 0.26 (≈ 0.581 µM) | – |
| Cc1ccc(C(=O)N2CCc3cc(S(=O)(=O)N4CC(c5ccccc5)NC4=O)ccc32)cc1 (stereo not shown) [Example 48, 4-phenyl-1-[N-(4-methylbenzoyl)indoline-5-sulfonyl]-4,5-dihydro-2-imidazolone] | 1.74 (≈ 3.76 µM) | 2.4 (≈ 5.2 µM) | > 20 | – |
| O=C(c1ccccc1O)N1CCc2cc(S(=O)(=O)N3CC(c4ccccc4)NC3=O)ccc21 (stereo not shown) [Example 49, 4-phenyl-1-[N-(2-hydroxybenzoyl)indoline-5-sulfonyl]-4,5-dihydro-2-imidazolone] | 0.638 (≈ 1.38 µM) | 5.71 (≈ 12.3 µM) | 0.591 (≈ 1.28 µM) | – |
| COc1ccc(C(=O)N2CCc3cc(S(=O)(=O)N4CC(c5ccccc5)NC4=O)ccc32)cc1 (stereo not shown) [Example 50, 4-phenyl-1-[N-(4-methoxybenzoyl)indoline-5-sulfonyl]-4,5-dihydro-2-imidazolone] | 1.56 (≈ 3.28 µM) | 2.19 (≈ 4.58 µM) | 1.37 (≈ 2.87 µM) | – |
| COc1ccc(C(=O)N2CCc3cc(S(=O)(=O)N4CC(c5ccccc5)NC4=O)ccc32)cc1OC (stereo not shown) [Example 51, 4-phenyl-1-[N-(3,4-dimethoxybenzoyl)indoline-5-sulfonyl]-4,5-dihydro-2-imidazolone] | 1.65 (≈ 3.25 µM) | 0.218 (≈ 0.429 µM) | 12.1 (≈ 23.9 µM) | – |
| CCOc1ccc(C(=O)N2CCc3cc(S(=O)(=O)N4CC(c5ccccc5)NC4=O)ccc32)cc1 (stereo not shown) [Example 52, 4-phenyl-1-[N-(4-ethoxybenzoyl)indoline-5-sulfonyl]-4,5-dihydro-2-imidazolone] | 0.101 (≈ 0.205 µM) | – | 2.22 (≈ 4.51 µM) | – |
| O=C(c1ccc(Cl)cc1)N1CCc2cc(S(=O)(=O)N3CC(c4ccccc4)NC3=O)ccc21 (stereo not shown) [Example 53, 4-phenyl-1-[N-(4-chlorobenzoyl)indoline-5-sulfonyl]-4,5-dihydro-2-imidazolone] | 0.774 (≈ 1.61 µM) | 0.594 (≈ 1.23 µM) | 5.97 (≈ 12.4 µM) | – |
| O=C(c1ccc(F)cc1)N1CCc2cc(S(=O)(=O)N3CC(c4ccccc4)NC3=O)ccc21 (stereo not shown) [Example 54, 4-phenyl-1-[N-(4-fluorobenzoyl)indoline-5-sulfonyl]-4,5-dihydro-2-imidazolone] | 0.59 (≈ 1.27 µM) | 3.64 (≈ 7.83 µM) | 2.33 (≈ 5 µM) | – |
| O=C(c1ccc([N+](=O)[O-])cc1)N1CCc2cc(S(=O)(=O)N3CC(c4ccccc4)NC3=O)ccc21 (stereo not shown) [Example 55, 4-phenyl-1-[N-(4-nitrobenzoyl)indoline-5-sulfonyl]-4,5-dihydro-2-imidazolone] | 1.7 (≈ 3.45 µM) | 8.88 (≈ 18 µM) | 2.09 (≈ 4.24 µM) | – |
| N#Cc1ccc(C(=O)N2CCc3cc(S(=O)(=O)N4CC(c5ccccc5)NC4=O)ccc32)cc1 (stereo not shown) [Example 56, 4-phenyl-1-[N-(4-cyanobenzoyl)indoline-5-sulfonyl]-4,5-dihydro-2-imidazolone] | 1.59 (≈ 3.36 µM) | 4.96 (≈ 10.5 µM) | 0.968 (≈ 2.05 µM) | – |
| O=C(c1cccc(Cl)c1)N1CCc2cc(S(=O)(=O)N3CC(c4ccccc4)NC3=O)ccc21 (stereo not shown) [Example 58, 4-phenyl-1-[N-(3-chlorobenzoyl)indoline-5-sulfonyl]-4,5-dihydro-2-imidazolone] | 1.62 (≈ 3.36 µM) | 7.04 (≈ 14.6 µM) | 2.6 (≈ 5.39 µM) | – |
| O=C(c1cc(Cl)cc(Cl)c1)N1CCc2cc(S(=O)(=O)N3CC(c4ccccc4)NC3=O)ccc21 (stereo not shown) [Example 59, 4-phenyl-1-[N-(3,5-dichlorobenzoyl)indoline-5-sulfonyl]-4,5-dihydro-2-imidazolone] | 2.02 (≈ 3.92 µM) | 1.88 (≈ 3.64 µM) | 16.5 (≈ 32 µM) | – |
| O=C(c1cccc(F)c1)N1CCc2cc(S(=O)(=O)N3CC(c4ccccc4)NC3=O)ccc21 (stereo not shown) [Example 60, 4-phenyl-1-[N-(3-fluorobenzoyl)indoline-5-sulfonyl]-4,5-dihydro-2-imidazolone] | 0.328 (≈ 0.705 µM) | 0.619 (≈ 1.33 µM) | 8.51 (≈ 18.3 µM) | – |
| O=C(c1ccc(F)cc1F)N1CCc2cc(S(=O)(=O)N3CC(c4ccccc4)NC3=O)ccc21 (stereo not shown) [Example 61, 4-phenyl-1-[N-(2,4-difluorobenzoyl)indoline-5-sulfonyl]-4,5-dihydro-2-imidazolone] | 1.94 (≈ 4.01 µM) | 5.66 (≈ 11.7 µM) | 1.52 (≈ 3.14 µM) | – |
| O=C(c1cccc(C(F)(F)F)c1)N1CCc2cc(S(=O)(=O)N3CC(c4ccccc4)NC3=O)ccc21 (stereo not shown) [Example 62, 4-phenyl-1-[N-(3-trifluoromethylbenzoyl)indoline-5-sulfonyl]-4,5-dihydro-2-imidazolone] | 2.18 (≈ 4.24 µM) | 1.37 (≈ 2.65 µM) | 11.8 (≈ 22.8 µM) | – |
| O=C(c1cccc(OC(F)(F)F)c1)N1CCc2cc(S(=O)(=O)N3CC(c4ccccc4)NC3=O)ccc21 (stereo not shown) [Example 63, 4-phenyl-1-[N-(3-trifluoromethoxybenzoyl)indoline-5-sulfonyl]-4,5-dihydro-2-imidazolone] | 2.74 (≈ 5.15 µM) | – | 11.3 (≈ 21.4 µM) | – |
| O=C(c1ccc(OC(F)(F)F)cc1)N1CCc2cc(S(=O)(=O)N3CC(c4ccccc4)NC3=O)ccc21 (stereo not shown) [Example 64, 4-phenyl-1-[N-(4-trifluoromethoxybenzoyl)indoline-5-sulfonyl]-4,5-dihydro-2-imidazolone] | 0.695 (≈ 1.31 µM) | – | 2.96 (≈ 5.56 µM) | – |
